From PMC11785157 (bioRxiv, 2025)
Where two headings read alike, the source gives them in different places.

Key:
CHIKV [1] = experiment: CPE reduction assay, CHIKV in Vero cells; assay type: cell-based, chikungunya virus; conditions: read-out: EC50 CHIKV
CHIKV [2] = experiment: CPE reduction assay, CHIKV in skin fibroblasts; assay type: cell-based, chikungunya virus; conditions: read-out: EC50 CHIKV
in vitro [3] = conditions: African green monkey
VEEV TC83 [4] = experiment: microbe, parasite or virus in culture; assay type: cell-based, Venezuelan Equine Encephalitis virus; conditions: for EC50: Venezuelan equine encephalitis virus, Huh-7, 72 h, read-out: EC50 VEEV TC83
VEEV TC83 [5] = experiment: microbe, parasite or virus in culture; assay type: cell-based; conditions: Venezuelan equine encephalitis virus, Vero, 72 h, read-out: EC50 VEEV TC83
SINV HRsp [6] = experiment: microbe, parasite or virus in culture; assay type: cell-based, Sindbis virus; conditions: for EC50: Sindbis virus, Huh-7, 72 h, read-out: EC50 SINV HRsp
RRV [7] = experiment: microbe, parasite or virus in culture; assay type: cell-based; conditions: Ross River virus, Skin fibroblast, 72 h, read-out: EC50 RRV
RRV [8] = experiment: microbe, parasite or virus in culture; assay type: cell-based; conditions: Ross River virus, Vero, 72 h, read-out: EC50 RRV
SINV HRsp [9] = experiment: microbe, parasite or virus in culture; assay type: cell-based; conditions: Sindbis virus, Vero, 72 h, read-out: EC50 SINV HRsp
in vitro [10] = conditions: human
in vitro [11] = conditions: human; remark: listed apart in the source
SFV [12] = experiment: microbe, parasite or virus in culture; assay type: cell-based; conditions: Semliki Forest virus, Skin fibroblast, 72 h, read-out: EC50 SFV
[13] = tested on: alphaviruses (CHIKV, SFV, SINV-HRsp, SINV-AR86, VEEV TC83 and RRV); experiment: microbe, parasite or virus in culture; assay type: cell-based
SINV AR86 [14] = experiment: microbe, parasite or virus in culture; assay type: cell-based; conditions: Sindbis virus, Vero, 72 h, read-out: EC50 SINV AR86
SINV AR86 [15] = experiment: microbe, parasite or virus in culture; assay type: cell-based, Sindbis virus; conditions: for EC50: Sindbis virus, Huh-7, 72 h, read-out: EC50 SINV AR86
SFV [16] = experiment: microbe, parasite or virus in culture; assay type: cell-based; conditions: Semliki Forest virus, Vero, 72 h, read-out: EC50 SFV
alphaviruses [17] = experiment: organism not typed; assay type: cell-based
[18] = mouse, in vivo
CHIKV [19] = experiment: Viral RNA levels in CHIKV-infected AG129 mice; assay type: in vivo; conditions: day 3 pi
alphaviruses [20] = assay type: cell-based
CHIKV [21] = experiment: Infectious virus titres in CHIKV-infected AG129 mice; assay type: in vivo
CHIKV [22] = experiment: CHIKV-induced foot swelling in AG129 mice; assay type: in vivo
CHIKV [23] = conditions: SOF 20 mg/kg/day; cited from earlier work
CHIKV [24] = conditions: SOF 40-80 mg/kg/day; cited from earlier work
[25] = Chikungunya virus, Skin fibroblast, 72 h
[26] = MPV 10, 50, 100 mg/kg, day 3 pi
[27] = combination study, day 2 pi, MPV 10 mg/kg, SOF 80 mg/kg or both (80 + 10 mg/kg), oral

Compound O=c1nc(NO)ccn1[C@@H]1O[C@H](CO)[C@@H](O)[C@H]1O [EIDD-1931] has an EC50 (CHIKV [1]; Vero cells, 72 h pi, MTS) of 0.7 µM, a CC50 (Human skin fibroblasts) of 140 ± 19 µM and a CC50 (Huh7 cells) of 22 ± 11 µM. The EC50 (CHIKV [2]; Skin fibroblasts, 72 h pi, MTS) was 0.9 µM and the CC50 (Vero cells) was greater than 200 µM.
In the case of NC(=O)c1nc(F)c[nH]c1=O [FAV, favipiravir], the CC50 (in vitro [3]) is reported as 374 ± 17 µM, the “antiviral activity against VEEV TC83 (in words)” value (VEEV TC83 [4]) is reported as “active” and the EC50 (VEEV TC83 [4]) is reported as 112 µM. For the same compound, the EC50 (VEEV TC83 [5]) was 13 µM, the “antiviral activity against SINV HRsp (in words)” value (SINV HRsp [6]) was “active” and the EC50 (SINV HRsp [6]) was 22 ± 7 µM. The EC50 (RRV [7]) was greater than 200 µM, the EC50 (CHIKV [1]; Chikungunya virus, Vero, 72 h) was 35 ± 14 µM and the EC50 (RRV [8]) was 15 ± 12 µM. It also gave an EC50 (SINV HRsp [9]) of 52 ± 18 µM, a CC50 (in vitro [10]) greater than 500 µM and a CC50 (in vitro [11]) greater than 500 µM. The EC50 (SFV [12]) was 382 µM, the EC50 ([13]; Chikungunya virus, Vero, read-out: EC50 values against all alphaviruses tested) was 13 to 52 µM and the EC50 (CHIKV [2]; [25]) was 143 ± 5 µM. The EC50 (SINV AR86 [14]) was 17 ± 2 µM, the “antiviral activity against SINV AR86 (in words)” value (SINV AR86 [15]) was “active” and the EC50 (SINV AR86 [15]) was 29 ± 18 µM. The EC50 (SFV [16]) was 33 ± 6 µM and the “antiviral efficacy (in words)” value (alphaviruses [17]) was “only effective against CHIKV”.
In the case of CC(C)C(=O)OC[C@H]1O[C@@H](n2ccc(NO)nc2=O)[C@H](O)[C@@H]1O [MPV, Molnupiravir], the tolerability [18] is reported as “well-tolerated”, the “viral RNA in contralateral ankle (in words)” value (CHIKV [19]; MPV 10, 50, 100 mg/kg) is reported as “dose-dependent decreases” and the “viral RNA in serum (in words)” value (CHIKV [19]; MPV 10, 50, 100 mg/kg) is reported as “significantly reduced”. For the same compound, the “viral RNA in left ankle (in words)” value (CHIKV [19]; highest dose of MPV) was “significant decreases”, the “EC50 values, pan-alphavirus (in words)” value (alphaviruses [20]) was “sub to low single-digit micromolar range” and the “infectious virus in contralateral ankle (in words)” value (CHIKV [21]; [26]) was “dose-dependent decreases”. For the same compound, the “infectious virus in serum (in words)” value (CHIKV [21]; [26]) was “dose-dependent decreases”, the “infectious CHIKV in serum (in words)” value (CHIKV [21]; MPV all doses (10, 50, 100 mg/kg), day 2 pi) was “suppressed infectious CHIKV” and the “reduction of infectious virus titres in serum” value (CHIKV [21]; combination study, day 3 pi, MPV 10 mg/kg, SOF 80 mg/kg or both) was 1 log10 TCID50/mL. The “infectious virus in left ankle (in words)” value (CHIKV [21]; highest dose of MPV, day 3 pi) was “significant decreases”, the “effect on foot swelling (in words)” value (CHIKV [22]; MPV 10 mg/kg oral twice daily, dose-response study) was “did not significantly improve swelling” and the “reduction of foot swelling compared to vehicle” value (“reduction of foot swelling” below) (CHIKV [22]; MPV 50 mg/kg oral twice daily, day 2 pi) was 22%. For the same compound, the “reduction of foot swelling” value (CHIKV [22]; MPV 50 mg/kg oral twice daily, day 3 pi) was 55%, the “reduction of foot swelling” value (CHIKV [22]; MPV 100 mg/kg oral twice daily, day 2 pi) was 20% and the “reduction of foot swelling” value (CHIKV [22]; MPV 100 mg/kg oral twice daily, day 3 pi) was 62%. The “reduction of foot swelling” value (CHIKV [22]; [27]) was 19% and the “EC50 values against all alphaviruses tested (in words)” value (alphaviruses [17]) was “sub to low single-digit micromolar range”.
In the case of CC(C)OC(=O)[C@H](C)N[P@](=O)(OC[C@H]1O[C@@H](n2ccc(=O)[nH]c2=O)[C@](C)(F)[C@@H]1O)Oc1ccccc1 [SOF, Sofosbuvir], the CC50 (in vitro [3]) is reported as 350 ± 14 µM, the “antiviral activity against VEEV TC83 (in words)” value (VEEV TC83 [4]) is reported as “did not inhibit” and the EC50 (VEEV TC83 [4]) is reported as greater than 50 µM. The EC50 (VEEV TC83 [5]) was greater than 100 µM, the EC50 (SINV HRsp [6]) was 44 ± 3 µM and the EC50 (RRV [7]) was 20 ± 7 µM. The EC50 (CHIKV [1]; Chikungunya virus, Vero, 72 h) was greater than 100 µM, the EC50 (RRV [8]) was greater than 100 µM and the EC50 (SINV HRsp [9]) was greater than 100 µM. For the same compound, the CC50 (in vitro [10]) was 280 ± 13 µM, the foot swelling (CHIKV [23]) was “slightly reduced” and the “reduction of viral RNA in the joint” value (CHIKV [23]) was less than 1 log gc/ml. For the same compound, the CC50 (in vitro [11]) was 271 ± 95 µM, the survival (CHIKV [24]) was “improved survival” and the EC50 (SFV [12]) was 17 ± 3 µM. The antiviral activity [13] was “no antiviral activity”, the “effect on foot swelling (in words)” value (CHIKV [22]; SOF 40 and 80 mg/kg oral twice daily, over the course of the infection) was “did not significantly improve” and the “reduction of foot swelling” value (CHIKV [22]; [27]) was 25%. The “reduction of foot swelling” value (CHIKV [22]; combination study, day 3 pi, MPV 10 mg/kg, SOF 80 mg/kg or both (80 + 10 mg/kg), oral) was “no reduction”, the EC50 (CHIKV [2]; [25]) was 15 ± 3 µM and the “antiviral activity against SINV AR86 (in words)” value (SINV AR86 [15]) was “did not inhibit”. It also gave an EC50 (SINV AR86 [15]) greater than 50 µM, an EC50 (SFV [16]) greater than 100 µM and an EC50 (alphaviruses [17]; Skin fibroblast, read-out: EC50 values against all alphaviruses tested) of 12 to 20 µM.
